Assay results published in patent US12448382B2, “Heterocyclic compounds for mediating tyrosine kinase 2 activity” (GUANGZHOU INNOCARE PHARMA TECH CO., LTD., priority 2019, dated 2025).

Assays:
[1] = test system: IL-12-induced IFN-γ secretion in NK92 cells; test: Inhibition of IL-12-induced IFN-γ Secretion in NK92 Cells (ELISA); assay type: cell-based, human; conditions: Homo sapiens, 24 hours incubation, 8 concentration points, read-out: IC50 (NK92_IL12/IFNγ)
Method in brief: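 NK92 cells (100,000/well, IL-2-free medium) rested overnight, then treated with compound plus IL-12 for 24 h at 37 °C. Secreted IFN-γ measured in supernatant by ELISA. Inhibition normalized to unstimulated and IL-12/0.2% DMSO controls; IC50 fitted from 8 concentrations.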

[2] = biological target: T1, human recombinant JAK2 protein (Homo sapiens, UniProt O60674); test: JAK2 Inhibition Assay (HTRF kinase assay); assay type: biochemical; conditions: human recombinant JAK2, 2.5 μM ATP substrate solution
T1 construct: purchased Carna Biosciences 08-045
Method in brief: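 Recombinant human JAK2 was preincubated 15 min at room temperature with compound in buffer containing 5 mM MgCl2, 1 mM DTT and 0.01% Brij35. Substrate solution (2.5 μM ATP, 0.25 μM biotinylated TK substrate) was then added for 30 min. Phosphorylation was detected by HTRF (665/620 nm ratio; no-enzyme = 100% inhibition), and IC50 was fitted from an 8-point, 4-fold series.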

[3] = biological target: T2, human recombinant TYK2 protein (Homo sapiens, UniProt P29597); test: TYK2 Inhibition Assay (HTRF kinase assay); assay type: biochemical; conditions: human recombinant TYK2, 11.25 μM ATP substrate solution
T2 construct: purchased Carna Biosciences 08-147
T2 sequence (P29597 871-1187 limits assumed): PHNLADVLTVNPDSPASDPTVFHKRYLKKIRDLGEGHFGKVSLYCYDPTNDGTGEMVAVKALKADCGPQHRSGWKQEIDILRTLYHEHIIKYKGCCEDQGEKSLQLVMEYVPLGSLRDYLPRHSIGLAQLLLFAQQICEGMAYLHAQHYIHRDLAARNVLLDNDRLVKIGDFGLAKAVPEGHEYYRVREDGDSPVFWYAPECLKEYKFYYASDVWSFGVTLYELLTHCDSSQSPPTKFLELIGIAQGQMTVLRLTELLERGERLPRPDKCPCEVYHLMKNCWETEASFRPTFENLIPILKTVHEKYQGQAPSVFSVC
Method in brief: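 Recombinant human TYK2 was pre-incubated 15 min at room temperature with compound, then reacted for 40 min with biotinylated tyrosine-kinase substrate and ATP (substrate solution 11.25 μM ATP, 0.5 μM substrate; 5 mM MgCl2, 0.01% Brij35). Phosphorylation was read by HTRF 665/620 ratio, normalised to no-enzyme and no-compound controls, and IC50 was fitted from 8 4-fold dilutions.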

T1 sequence (O60674 826-1132 limits assumed): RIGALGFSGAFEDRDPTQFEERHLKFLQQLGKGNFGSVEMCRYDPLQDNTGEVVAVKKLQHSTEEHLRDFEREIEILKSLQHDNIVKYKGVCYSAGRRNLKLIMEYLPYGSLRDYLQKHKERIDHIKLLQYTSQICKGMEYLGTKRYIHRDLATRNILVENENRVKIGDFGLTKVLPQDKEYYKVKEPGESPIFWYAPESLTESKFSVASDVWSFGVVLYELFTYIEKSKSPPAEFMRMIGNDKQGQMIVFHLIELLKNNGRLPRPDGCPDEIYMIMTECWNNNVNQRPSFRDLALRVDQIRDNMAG

Row | SMILES | IC50 [1] [nM] | IC50 [2] [nM] | IC50 [3] [nM]
1 | COCC(=O)N1C[C@@]2(C)CN(c3nc(Nc4cnn(C)c4)ncc3Cl)C[C@@]2(C)C1 [Compound 37, 1-((3aR,6aS)-5-(5-chloro-2-((1-methyl-1H-pyrazol-4-yl)amino)pyrimidin-4-yl)-3a,6a-dimethylhexahydropyrrolo[3,4-c]pyrrol-2(1H)-yl)-2-methoxyethan-1-one] | 2100 | 15 | 12
2 | Cn1cc(Nc2ncc(Cl)c(N3C[C@]4(C)CN(C(=O)C5COC5)C[C@]4(C)C3)n2)cn1 [Compound 39, ((3aR,6aS)-5-(5-chloro-2-((1-methyl-1H-pyrazol-4-yl)amino)pyrimidin-4-yl)-3a,6a-dimethylhexahydropyrrolo[3,4-c]pyrrol-2(1H)-yl)(oxetan-3-yl)methanone] | 919 | 11 | 4.4
3 | Cn1cc(Nc2ncc(Cl)c(N3C[C@]4(C)CN(C(=O)C5(C#N)CC5)C[C@]4(C)C3)n2)cn1 [Compound 42, 1-((3aR,6aS)-5-(5-chloro-2-((1-methyl-1H-pyrazol-4-yl)amino)pyrimidin-4-yl)-3a,6a-dimethyloctahydropyrrolo[3,4-c]pyrrole-2-carbonyl)cyclopropane-1-carbonitrile] | 3470 | 20 | 5.7
4 | Cn1cc(Nc2ncc(Cl)c(N3C[C@]4(C)CN(C(=O)C5(O)CC5)C[C@]4(C)C3)n2)cn1 [Compound 43, ((3aR,6aS)-5-(5-chloro-2-((1-methyl-1H-pyrazol-4-yl)amino)pyrimidin-4-yl)-3a,6a-dimethylhexahydropyrrolo[3,4-c]pyrrol-2(1H)-yl)(1-hydroxycyclopropyl)methanone] | 3390 | 18 | 4.5
5 | Cn1cc(Nc2ncc(Cl)c(N3C[C@]4(C)CN(C(=O)C(C)(C)O)C[C@]4(C)C3)n2)cn1 [Compound 44, 1-((3aR,6aS)-5-(5-chloro-2((1-methyl-1H-pyrazol-4-yl)amino)pyrimidin-4-yl)-3a,6a-dimethylhexahydropyrrolo[3,4-c]pyrrol-2(1H)-yl)-2-hydroxy-2-methylpropan-1-one] | 3620 | 20 | 8.6
6 | Cn1cc(Nc2ncc(Cl)c(N3C[C@]4(C)CN(C(=O)C(C)(C)C#N)C[C@]4(C)C3)n2)cn1 [Compound 45, 3-((3aR,6aS)-5-(5-chloro-2-((1-methyl-1H-pyrazol-4-yl)amino)pyrimidin-4-yl)-3a,6a-dimethylhexahydropyrrolo[3,4-c]pyrrol-2(1H)-yl)-2,2-dimethyl-3-oxopropanenitrile] | 5390 | 19 | 12
7 | Cn1cc(Nc2ncc(Cl)c(N3C[C@]4(C)CN(C(=O)c5ccccn5)C[C@]4(C)C3)n2)cn1 [Compound 47, ((3aR,6aS)-5-(5-chloro-2-((1-methyl-1H-pyrazol-4-yl)amino)pyrimidin-4-yl)-3a,6a-dimethylhexahydropyrrolo[3,4-c]pyrrol-2(1H)-yl)(pyridin-2-yl)methanone] | 7920 | 51 | 13
8 | Cn1cc(Nc2ncc(Cl)c(N3C[C@]4(C)CN(c5ccccn5)C[C@]4(C)C3)n2)cn1 [Compound 54, 5-chloro-4-((3aR,6aS)-3a,6a-dimethyl-5-(pyridin-2-yl)hexahydropyrrolo[3,4-c]pyrrol-2(1H)-yl)-N-(1-methyl-1H-pyrazol-4-yl)pyrimidin-2-amine] | 934 | 0.9 | 0.2
9 | CN1CCN(C(=O)c2ccc(Nc3ncc(Cl)c(N4C[C@]5(C)CN(C(=O)C6CC6)C[C@]5(C)C4)n3)cn2)CC1 [Compound 59, ((3aR,6aS)-5-(5-chloro-2-((6-(4-rnethylpiperazine-1-carbonyl)pyridin-3-yl)amino)pyrimidin-4-yl)-3a,6a-dimethylhexahydropyrrolo[3,4-c]pyrrol-2(1H)-yl)(cyclopropyl)methanone] | 2390 | 5.1 | 5

Continued by falling IC50 [1], values first:

Row | IC50 [1] [nM] | IC50 [2] [nM] | IC50 [3] [nM] | SMILES
10 | 918 | 3.8 | 3.2 | C[C@@]12CN(C(=O)C3CC3)C[C@]1(C)CN(c1nc(Nc3ccc(C(=O)N4CCOCC4)nc3)ncc1Cl)C2 [Compound 53, ((3aR,6aS)-5-(5-chloro-2-((6-(morpholine-4-carbonyl)pyridin-3-yl)amino)pyrimidin-4-yl)-3a,6a-dimethylhexahydropyrrolo[3,4-c]pyrrol-2(1H)-yl)(cyclopropyl)methanone]
11 | 709 | 2.5 | 0.7 | Cn1cc(Nc2ncc(Cl)c(N3C[C@]4(C)CN(C(=O)CC(F)(F)F)C[C@]4(C)C3)n2)cn1 [Compound 48, 1-((3aR,6aS)-5-(5-chloro-2-((1-methyl-1H-pyrazol-4-yl)amino)pyrimidin-4-yl)-3a,6a-dimethylhexahydropyrrolo[3,4-c]pyrrol-2(1H)-yl)-3,3,3-trifluoropropan-1-one]
12 | 635 | 1.7 | 1.3 | CCS(=O)(=O)N1C[C@]2(C)CN(c3nc(Nc4cnn(C)c4)ncc3Cl)C[C@]2(C)C1 [Compound 41, 5-chloro-4-((3aR,6aS)-5-(ethylsulfonyl)-3a,6a-dimethylhexahydropyrrolo[3,4-c]pyrrol-2(1H)-yl)-N-(1-methyl-1H-pyrazol-4-yl)pyrimidin-2-amine]
13 | 597 | 7.3 | 2.7 | CNC(=O)c1ccc(Nc2ncc(Cl)c(N3C[C@]4(C)CN(C(=O)C5CC5)C[C@]4(C)C3)n2)cn1 [Compound 51, 5-((5-chloro-4-((3aR,6aS)-5-(cyclopropanecarbonyl)-3a,6a-dimethylhexahydropyrrolo[3,4-c]pyrrol-2(1H)-yl)pyrimidin-2-yl)amino)-N-methylpicolinamide]
14 | 592 | 4.1 | 1.8 | CCC(=O)N1C[C@@]2(C)CN(c3nc(Nc4cnn(C)c4)ncc3Cl)C[C@@]2(C)C1 [Compound 36, 1-((3aR.,6aS)-5-(5-chloro-2-((1-methyl-1H-pyrazol-4-yl)amino)pyrimidin-4-yl)-3a,6a-dimethylhexahydropyrrolo[3,4-c]pyrrol-2(1H)-yl)propan-1-one]
15 | 505 | 2.5 | 1.7 | Cc1cnc(Nc2cnn(C)c2)nc1N1C[C@]2(C)CN(C(=O)[C@@H]3CC3(F)F)C[C@]2(C)C1 [Compound 56, ((S)-2,2-difluorocyclopropyl)((3aR,6aS)-3a,6a-dimethyl-5-(5-methyl-2-((1-methyl-1H-pyrazol-4-yl)amino)pyrimidin-4-yl)hexahydropyrrolo[3,4-c]pyrrol-2(1H)-yl)methanone]
16 | 453 | 3.3 | 0.6 | Cn1cc(Nc2ncc(Cl)c(N3C[C@]4(C)CN(C(=O)CO)C[C@]4(C)C3)n2)cn1 [Compound 35, 1-((3aR,6aS)-5-(5-chloro-2-((1-methyl-1H-pyrazol-4-yl)amino)pyrimidin-4-yl)-3a,6a-dimethylhexahydropyrrolo[3,4-c]pyrrol-2(1H)-yl)-2-hydroxyethan-1-one]
17 | 422 | 1.2 | 0.4 | Cn1cc(Nc2ncc(Cl)c(N3C[C@]4(C)CN(CC(F)(F)F)C[C@]4(C)C3)n2)cn1 [Compound 40, 5-chloro-4-((3aR,6aS)-3a,6a-dimethyl-5-(2,2,2-trifluoroethyl)hexahydropyrrolo[3,4-c]pyrrol-2(1H)-yl)-N-(1-methyl-1H-pyrazol-4-yl)pyrimidin-2-amine]
18 | 413 | 3.7 | 1.7 | Cc1cnc(Nc2cnn(C)c2)nc1N1C[C@@]2(C)CN(S(C)(=O)=O)C[C@@]2(C)C1 [Compound 55, 4-((3aR,6aS)-3a,6a-dimethyl-5-(methylsulfonyl)hexahydropyrrolo[3,4-c]pyrrol-2(1H)-yl)-5-methyl-N-(1-methyl-1H-pyrazol-4-yl)pyrimidin-2-amine]
19 | 289 | 1.8 | 0.9 | Cn1cc(Nc2ncc(Cl)c(N3C[C@]4(C)CN(C(=O)CC(F)F)C[C@]4(C)C3)n2)cn1 [Compound 52]
20 | 287 | 1.8 | 0.6 | Cn1cc(Nc2ncc(Cl)c(N3C[C@@]4(C)CN(S(C)(=O)=O)C[C@@]4(C)C3)n2)cn1 [Compound 34, 5-chloro-4-((3aR,6aS)-3a,6a-dimethyl-5-(methylsulfonyl)hexahydropyrrolo[3,4-c]pyrrol-2(1H)-yl)-N-(1-methyl-1H-pyrazol-4-yl)pyrimidin-2-amine]
21 | 43 | 0.1 | 0.3 | Cn1cc(Nc2ncc(Cl)c(N3C[C@]4(C)CN(Cc5ccno5)C[C@]4(C)C3)n2)cn1 [Compound 50, 5-chloro-4-((3aR,6aS)-5-(isoxazol-5-ylmethyl)-3a,6a-dimethylhexahydropyrrolo[3,4-c]pyrrol-2(1H)-yl)-N(1-methyl-1H-pyrazol-4-yl)pyrimidin-2-amine]
